This is an account of results in ChEMBL document CHEMBL3301562, “MMV Box screening against Plasmodium falciparum protein kinases and aminoacyl tRNA synthetases”.

What all share (assay type): functional
One assay deals with Lysine--tRNA ligase (Plasmodium falciparum (isolate 3D7), UniProt Q8IDJ8). Kind of assay: MMV: KRS recombinant Plasmodium falciparum Lysyl-tRNA-synthetase, assay with yeast tRNA, ATP, and lysine and 3 uM MMV malaria box compound, assay read out with kinase glo as % inhibition. In general terms: Kinase-Glo measures the ATP left after a reaction by luminescence.
The next assay has as its target T1, Proline--tRNA ligase (Plasmodium falciparum (isolate 3D7), UniProt Q8I5R7).
T1 sequence (Q8I5R7 whole entry): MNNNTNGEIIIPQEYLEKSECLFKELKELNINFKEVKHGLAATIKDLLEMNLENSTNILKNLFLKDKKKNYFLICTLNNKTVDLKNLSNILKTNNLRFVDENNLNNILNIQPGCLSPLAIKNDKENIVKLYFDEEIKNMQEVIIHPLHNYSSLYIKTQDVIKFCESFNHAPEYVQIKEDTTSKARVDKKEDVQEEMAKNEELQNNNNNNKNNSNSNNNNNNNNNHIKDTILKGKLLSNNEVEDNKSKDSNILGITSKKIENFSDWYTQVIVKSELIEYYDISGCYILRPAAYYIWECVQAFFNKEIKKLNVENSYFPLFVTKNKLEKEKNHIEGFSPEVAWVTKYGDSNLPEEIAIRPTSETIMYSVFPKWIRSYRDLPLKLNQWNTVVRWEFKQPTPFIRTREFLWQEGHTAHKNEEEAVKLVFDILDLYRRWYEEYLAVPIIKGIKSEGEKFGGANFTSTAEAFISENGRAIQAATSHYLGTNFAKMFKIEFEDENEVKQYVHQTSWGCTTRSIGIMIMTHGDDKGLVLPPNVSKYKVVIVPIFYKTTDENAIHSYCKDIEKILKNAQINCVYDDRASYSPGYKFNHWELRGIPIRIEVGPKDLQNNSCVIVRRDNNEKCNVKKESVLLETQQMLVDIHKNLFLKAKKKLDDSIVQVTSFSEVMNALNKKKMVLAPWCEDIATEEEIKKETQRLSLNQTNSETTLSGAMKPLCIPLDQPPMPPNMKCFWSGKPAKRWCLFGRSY
The assay is described as follows: MMV: ProRS recombinant Plasmodium falciparum Prolyl-tRNA-synthetase, assay with yeast tRNA, ATP, and proline and 3 uM MMV malaria box compound, assay read out with kinase glo as % inhibition.

For assay [1], the target named is T2, Putative uncharacterized protein pk7 (Plasmodium falciparum, UniProt O96214).
T2 sequence (O96214 whole entry): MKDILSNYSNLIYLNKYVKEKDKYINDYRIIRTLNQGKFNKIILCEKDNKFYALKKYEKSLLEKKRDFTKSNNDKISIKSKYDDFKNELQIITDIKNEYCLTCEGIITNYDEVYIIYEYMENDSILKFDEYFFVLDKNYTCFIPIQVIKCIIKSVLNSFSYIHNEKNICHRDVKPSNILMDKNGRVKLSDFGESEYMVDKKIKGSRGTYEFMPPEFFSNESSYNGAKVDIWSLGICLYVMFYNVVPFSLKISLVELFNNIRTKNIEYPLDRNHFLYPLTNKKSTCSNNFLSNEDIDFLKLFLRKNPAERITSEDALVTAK
The assay is described as follows: Final concentrations were 1 uM ATP, 2 mM DTT, 20 mM MgCl2, 2 mM MnCl2, 0.01% BSA, and 6 ug/ml PK7, in a buffer of 20 mM Tris-HCl (pH 7.5). The enzyme itself was the only substrate present (since autophosphorylation occurs); 100 uM 1NA-PP1 was used as a control inhibitor. Incubation time was 3 hours.

Assay [2] has as its target Calcium-dependent protein kinase 1 (Plasmodium falciparum, UniProt P62344). The assay is described as follows: MMV: CDPK1 Protein kinase inhibition assay using recombinant PfCDPK1, syntide 2 peptide substrate, ATP and KinaseGlo to measure % inhibition at 1 uM MMV box compound.
Assay [3] addresses T3, Mitogen-activated protein kinase (Plasmodium falciparum, UniProt Q25917).
T3 sequence (Q25917 whole entry): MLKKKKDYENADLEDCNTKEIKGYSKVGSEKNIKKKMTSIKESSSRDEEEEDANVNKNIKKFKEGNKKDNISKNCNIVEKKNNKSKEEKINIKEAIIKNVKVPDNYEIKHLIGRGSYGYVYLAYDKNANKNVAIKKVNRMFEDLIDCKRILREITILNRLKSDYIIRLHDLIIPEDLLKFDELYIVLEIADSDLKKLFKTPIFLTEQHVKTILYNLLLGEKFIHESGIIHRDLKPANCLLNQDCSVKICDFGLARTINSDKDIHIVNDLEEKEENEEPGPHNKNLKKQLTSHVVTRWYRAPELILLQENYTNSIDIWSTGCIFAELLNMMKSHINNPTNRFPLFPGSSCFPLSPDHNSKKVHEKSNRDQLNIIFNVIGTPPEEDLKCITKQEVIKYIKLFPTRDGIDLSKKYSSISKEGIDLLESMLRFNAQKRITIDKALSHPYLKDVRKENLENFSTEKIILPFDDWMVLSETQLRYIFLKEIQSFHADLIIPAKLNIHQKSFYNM
The assay is described as follows: Final concentrations were 1 uM ATP, 0.5 mM DTT, 1 mM MgCl2, 0.5 mg/mL BSA, and 10 ug/ml MAP2 in a buffer of 50 mM HEPES (pH 7.0). 0.5 mg/mL histone III-S served as the substrate (13); 100 uM AMP-PNP, an ATP analog, was used as a control inhibitor. Incubation time was 4 hours.

Assay [4] addresses T4, Calcium-dependent protein kinase 4 (Plasmodium falciparum (isolate 3D7), UniProt Q8IBS5).
T4 sequence (Q8IBS5 whole entry): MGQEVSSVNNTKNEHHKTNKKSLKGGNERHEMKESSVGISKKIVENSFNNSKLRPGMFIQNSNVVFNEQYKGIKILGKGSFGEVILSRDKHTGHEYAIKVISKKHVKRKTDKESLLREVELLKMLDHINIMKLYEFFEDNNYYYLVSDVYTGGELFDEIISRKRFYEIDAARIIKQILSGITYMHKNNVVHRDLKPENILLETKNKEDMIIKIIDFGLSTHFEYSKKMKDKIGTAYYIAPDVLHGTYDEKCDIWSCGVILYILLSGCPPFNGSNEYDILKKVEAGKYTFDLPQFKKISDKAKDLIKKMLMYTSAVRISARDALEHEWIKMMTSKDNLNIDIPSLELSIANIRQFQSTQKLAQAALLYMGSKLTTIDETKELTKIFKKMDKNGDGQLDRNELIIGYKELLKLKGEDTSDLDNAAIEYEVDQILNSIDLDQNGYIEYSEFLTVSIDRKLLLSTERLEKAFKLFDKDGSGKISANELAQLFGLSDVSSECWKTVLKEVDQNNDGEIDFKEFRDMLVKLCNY
Kind of assay: MMV: CDPK4 Protein kinase inhibition assay using recombinant PfCDPK4, syntide2 peptide substrate, ATP and KinaseGlo to measure % inhibition at 1 uM MMV box compound.

Assay [5] addresses T5, Cdk-related protein kinase 6 (Plasmodium falciparum, UniProt O77239).
T5 sequence (O77239 whole entry): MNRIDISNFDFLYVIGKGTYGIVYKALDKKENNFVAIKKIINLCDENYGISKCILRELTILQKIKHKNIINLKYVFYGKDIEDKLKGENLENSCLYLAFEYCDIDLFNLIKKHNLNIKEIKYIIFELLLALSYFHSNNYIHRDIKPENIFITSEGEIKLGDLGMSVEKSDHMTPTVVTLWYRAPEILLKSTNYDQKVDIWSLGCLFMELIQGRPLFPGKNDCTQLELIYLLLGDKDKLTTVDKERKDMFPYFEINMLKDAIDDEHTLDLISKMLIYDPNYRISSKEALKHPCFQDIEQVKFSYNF
The assay is described as follows: Final concentrations were 1.5 uM ATP, 5 mM MnCl2, and 15 ug/ml PK6 in a buffer of 100 mM Tris-HCl (pH 7.5). 50 ug/mL MBP was provided as the substrate; 10 uM staurosporine was used as a control inhibitor. Incubation time was 3 hours and 40 minutes.The catalytic activity of each kinase was considered proportional to ATP consumed, as determined from measurements of residual [ATP] with the luciferase-based reagent Kinase-Glo (Promega) following incubation. Luminescence (proportional to residual [ATP]) was measured on the plate readers FLx800 (BioTek Instruments, Winooski, VT, USA) and MicroBeta2.

Chain of Calcium-dependent protein kinase 1 (P62344 whole entry): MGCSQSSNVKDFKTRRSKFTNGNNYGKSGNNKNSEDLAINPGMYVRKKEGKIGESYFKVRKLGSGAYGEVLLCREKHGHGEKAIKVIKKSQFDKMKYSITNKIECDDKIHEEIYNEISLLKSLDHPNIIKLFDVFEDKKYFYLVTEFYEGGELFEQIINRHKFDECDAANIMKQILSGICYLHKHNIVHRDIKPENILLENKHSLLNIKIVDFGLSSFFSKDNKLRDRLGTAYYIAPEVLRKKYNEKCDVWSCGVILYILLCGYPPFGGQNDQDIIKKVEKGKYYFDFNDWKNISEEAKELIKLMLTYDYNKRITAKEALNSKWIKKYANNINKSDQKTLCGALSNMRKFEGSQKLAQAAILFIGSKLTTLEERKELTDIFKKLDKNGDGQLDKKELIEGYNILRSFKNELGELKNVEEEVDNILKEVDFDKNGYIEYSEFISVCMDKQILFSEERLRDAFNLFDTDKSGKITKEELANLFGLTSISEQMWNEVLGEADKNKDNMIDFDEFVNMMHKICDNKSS
Chain of Lysine--tRNA ligase (Q8IDJ8 whole entry): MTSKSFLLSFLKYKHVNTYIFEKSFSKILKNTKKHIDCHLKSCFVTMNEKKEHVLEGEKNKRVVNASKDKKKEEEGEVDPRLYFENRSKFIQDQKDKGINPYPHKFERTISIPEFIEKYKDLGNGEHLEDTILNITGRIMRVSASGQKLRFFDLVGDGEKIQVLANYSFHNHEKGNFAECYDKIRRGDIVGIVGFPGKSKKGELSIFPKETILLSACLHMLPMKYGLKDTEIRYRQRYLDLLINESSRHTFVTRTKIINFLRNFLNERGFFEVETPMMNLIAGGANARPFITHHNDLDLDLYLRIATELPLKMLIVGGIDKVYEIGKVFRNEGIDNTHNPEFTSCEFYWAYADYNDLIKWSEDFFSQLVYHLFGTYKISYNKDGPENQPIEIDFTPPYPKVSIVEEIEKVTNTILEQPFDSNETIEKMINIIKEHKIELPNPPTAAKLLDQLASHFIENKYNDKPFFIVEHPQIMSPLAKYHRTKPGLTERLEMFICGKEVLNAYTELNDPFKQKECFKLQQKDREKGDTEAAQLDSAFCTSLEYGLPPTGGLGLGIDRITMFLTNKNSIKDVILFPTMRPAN

By IC50 is commonly meant the concentration that inhibits the measured activity by half. On to `c1ccc(Cn2c(N=Nc3c(Nc4ccccc4)ccc4ccccc34)nc3ccccc32)cc1`, for which the IC50 on Lysine--tRNA ligase is over 2500 nM; at Proline--tRNA ligase it was over 2500 nM; in assay [1], over 1000 nM; in assay [2], over 1000 nM; in assay [3], over 1000 nM; in assay [4], over 1000 nM. The IC50 in assay [5] is over 1000 nM.

Consider `CCOc1cc2c(cc1OCC)C(c1cc(OC)c(O)cc1Cl)NCC2` (stereo not drawn), for which the IC50 was over 2500 nM at Lysine--tRNA ligase; over 2500 nM at Proline--tRNA ligase; over 1000 nM in assay [1]; over 1000 nM in assay [2]; over 1000 nM in assay [3]; over 1000 nM in assay [4]. For the same molecule, in assay [5], the IC50 was over 1000 nM.

Consider `Cc1ccc(-c2cc3nc4c(c(O)n3n2)CCCC4)cc1`, for which the IC50 at Lysine--tRNA ligase is over 2500 nM; on Proline--tRNA ligase, over 2500 nM; in assay [1] it was over 1000 nM; in assay [2], over 1000 nM; in assay [3], over 1000 nM; in assay [4], over 1000 nM. This molecule came in with an IC50 in assay [5] of over 1000 nM.

Regarding `N=c1c2ccccc2nnn1-c1cccc(C(F)(F)F)c1`, the IC50 at Lysine--tRNA ligase was over 2500 nM; at Proline--tRNA ligase, over 2500 nM; in assay [1] it was over 1000 nM; in assay [2] it was over 1000 nM; in assay [3], over 1000 nM; in assay [4] it was over 1000 nM. Further, in assay [5], the IC50 is over 1000 nM.

`CCOc1cc2c(cc1OCC)C(c1cc(Cl)ccc1O)NCC2` (stereo not drawn): the IC50 at Lysine--tRNA ligase is over 2500 nM; at Proline--tRNA ligase, over 2500 nM; in assay [1], over 1000 nM; in assay [2], over 1000 nM; in assay [3], over 1000 nM; in assay [4] it was over 1000 nM. This molecule also had an IC50 in assay [5] of over 1000 nM.

As for `Cc1cc(Nc2ccc(OCc3ccccc3)cc2)nc2cc(O)ccc12`, the IC50 on Lysine--tRNA ligase was over 2500 nM; at Proline--tRNA ligase, over 2500 nM; in assay [1] it was over 1000 nM; in assay [2], over 1000 nM; in assay [3], over 1000 nM; in assay [4], over 1000 nM. In assay [5], this molecule yielded an IC50 of over 1000 nM.

As for `CC(O)(c1ccc(Cl)cc1)C(CN1CCCCC1)c1ccccc1` (stereo not drawn), the IC50 was over 2500 nM on Lysine--tRNA ligase; over 2500 nM at Proline--tRNA ligase; over 1000 nM in assay [1]; over 1000 nM in assay [2]; over 1000 nM in assay [3]; over 1000 nM in assay [4]. In assay [5], this molecule displayed an IC50 of over 1000 nM.

On to `Cc1ccc(Cn2c(N3CCC(C(=O)NCc4cccs4)CC3)nc3ccccc32)cc1`, for which the IC50 is over 2500 nM at Lysine--tRNA ligase; over 2500 nM at Proline--tRNA ligase; over 1000 nM in assay [1]; over 1000 nM in assay [2]; over 1000 nM in assay [3]; over 1000 nM in assay [4]. Moreover, the IC50 in assay [5] was over 1000 nM.

For the molecule `Oc1ccc(-c2nc(-c3ccc4oc5ccc(-c6[nH]c(-c7ccc(O)cc7)nc6-c6ccccc6)cc5c4c3)c(-c3ccccc3)[nH]2)cc1`, the IC50 on Lysine--tRNA ligase was over 2500 nM; at Proline--tRNA ligase, over 2500 nM; in assay [1], over 1000 nM; in assay [2], over 1000 nM; in assay [3], over 1000 nM; in assay [4], over 1000 nM. For the same molecule, in assay [5], the IC50 is over 1000 nM.

Take `COc1ccc(-c2cc(=O)oc3c4c(ccc23)OCN(Cc2ccc(F)cc2)C4)cc1`: the IC50 on Lysine--tRNA ligase is over 2500 nM; at Proline--tRNA ligase, over 2500 nM; in assay [1], over 1000 nM; in assay [2], over 1000 nM; in assay [3], over 1000 nM; in assay [4] it was over 1000 nM. This molecule also gave an IC50 in assay [5] of over 1000 nM.

Regarding `COc1ccc(Nc2nc(NCc3ccccc3)c3ccccc3n2)cc1`, the IC50 on Lysine--tRNA ligase was over 2500 nM; on Proline--tRNA ligase, over 2500 nM; in assay [1], over 1000 nM; in assay [2], over 1000 nM; in assay [3] it was over 1000 nM; in assay [4], over 1000 nM. This molecule also came in with an IC50 in assay [5] of over 1000 nM.

With `COc1cccc(C=Cc2nc(=O)c3ccccc3o2)c1OC`, the IC50 is over 2500 nM at Lysine--tRNA ligase; over 2500 nM on Proline--tRNA ligase; over 1000 nM in assay [1]; over 1000 nM in assay [2]; over 1000 nM in assay [3]; over 1000 nM in assay [4]. Further, the IC50 in assay [5] is over 1000 nM.

For the molecule `CC1CC2=C(CC1CNCCCN(C)C)C(C)(C)CCC2` (stereo not drawn), the IC50 on Lysine--tRNA ligase was over 2500 nM; at Proline--tRNA ligase, over 2500 nM; in assay [1] it was over 1000 nM; in assay [2], over 1000 nM; in assay [3] it was over 1000 nM; in assay [4], over 1000 nM. Further, the IC50 in assay [5] was over 1000 nM.

`CC(C)(C)c1ccc(C(=O)Nc2c3c(nn2-c2cccc(Cl)c2)CSC3)cc1`: the concentration for half-maximal inhibition (IC50) on Lysine--tRNA ligase is over 2500 nM; at Proline--tRNA ligase, over 2500 nM; in assay [1] it was over 1000 nM; in assay [2], over 1000 nM; in assay [3], over 1000 nM; in assay [4], over 1000 nM. The molecule further showed an IC50 in assay [5] of over 1000 nM.
